Experimental data reported in paper PMC9385704, “A tubulin binding molecule drives differentiation of acute myeloid leukemia cells” (iScience, 2022).

Target: tubulin beta chain (TUBB) (Homo sapiens, UniProt P07437)
Assay: competition with photoaffinity probe […] in HL-60 cells; pull-down LC-MS/MS and anti-TUBB immunoblot
Format: cell-based

Chain of tubulin beta chain (TUBB) (P07437 whole entry): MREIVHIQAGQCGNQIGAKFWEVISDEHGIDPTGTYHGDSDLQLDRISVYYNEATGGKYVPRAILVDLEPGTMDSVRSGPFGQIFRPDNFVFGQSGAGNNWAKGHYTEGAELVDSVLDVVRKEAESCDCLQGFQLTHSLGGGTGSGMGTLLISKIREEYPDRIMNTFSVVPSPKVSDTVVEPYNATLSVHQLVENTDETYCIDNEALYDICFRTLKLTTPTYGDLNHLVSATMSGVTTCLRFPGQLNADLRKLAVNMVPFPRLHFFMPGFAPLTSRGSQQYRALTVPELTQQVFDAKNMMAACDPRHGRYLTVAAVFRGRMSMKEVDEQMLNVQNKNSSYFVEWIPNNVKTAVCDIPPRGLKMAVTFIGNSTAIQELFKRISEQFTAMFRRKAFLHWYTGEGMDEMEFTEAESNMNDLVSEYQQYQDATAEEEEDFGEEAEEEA

Cc1cc(C#N)ccc1-c1cc2c(cn1)ncn2-c1ccc2c(C)n[nH]c2c1 [compound 5, 3-Methyl-4-[1-(3-methyl-1H-indazol-6-yl)imidazo[4,5-c]pyridin-6-yl]benzonitrile]
competition with photoaffinity probe 4 in HL-60 cells; pull-down LC-MS/MS and an: The results clearly show concentration-dependent competition with OXS0082555 and paclitaxel confirming tubulin beta chain as a direct target
